{"source": "ChEMBL document CHEMBL5505993", "about": "“Identification of a ferritinophagy inducer via sinomenine modification for the treatment of colorectal cancer” (Eur J Med Chem, 2024)", "key": {"[1]": {"test_system": "HCT-116", "test": "Induction of ROS production in human HCT-116 cells incubated for 12 hrs by DCFH-DA probe based flow cytometry", "type": "functional, cell-based"}, "[2]": {"test_system": "HCT-116", "test": "Cytotoxicity against human HCT-116 cells assessed as inhibition of cell growth incubated for 12 hrs by CCK-8 assay", "type": "functional, cell-based", "conditions": "HCT-116, 12 h"}, "[3]": {"test_system": "HCT-116", "test": "Antiproliferative activity against human HCT-116 cells assessed as reduction in number of EdU-positive cell at 5 to 20 uM incubated for 9 hrs by Edu staining based analysis", "type": "functional", "conditions": "dose 5-20 µM"}, "[4]": {"test_system": "HCT-116", "test": "Induction of ferroptosis in human HCT-116 cells assessed as increase in 4-HNE level in presence of deferoxamine mesylate at 20 uM by ELISA", "type": "functional, cell-based"}, "[5]": {"test_system": "HCT-116", "test": "Induction of ferroptosis in human HCT-116 cells assessed as increase in 4-HNE level in presence of Ferrostatin-1 at 20 uM by ELISA", "type": "functional, cell-based"}, "[6]": {"test_system": "HCT-116", "test": "Induction of ferroptosis in human HCT-116 cells assessed as effect on GPX4 protein expression at 5 to 20 uM incubated for 12 hrs by Western blotting analysis", "type": "functional, cell-based", "conditions": "dose 5-20 µM"}, "[7]": {"test_system": "HCT-116", "test": "Induction of ferroptosis in human HCT-116 cells assessed as effect on ACSL4 protein expression at 5 to 20 uM incubated for 12 hrs by Western blotting analysis", "type": "functional, cell-based", "conditions": "dose 5-20 µM"}, "[8]": {"test_system": "HCT-116", "test": "Induction of ferroptosis in human HCT-116 cells assessed as effect on AIFM2 protein expression at 5 to 20 uM incubated for 12 hrs by Western blotting analysis", "type": "functional, cell-based", "conditions": "dose 5-20 µM"}, "[9]": {"test_system": "HCT-116", "test": "Induction of ferroptosis in human HCT-116 cells assessed as increase in intracellular ferrous ion level incubated for 12 hrs by ferroOrange probe based flow cytometric analysis", "type": "functional, cell-based"}, "[10]": {"test_system": "HCT-116", "test": "Induction of ferroptosis in human HCT-116 cells assessed as increase in intracellular ferrous ion level incubated for 12 hrs by ferroOrange probe based confocal fluorescence microscopic analysis", "type": "functional, cell-based"}, "[11]": {"test_system": "HCT-116", "test": "Induction of ferroptosis in human HCT-116 cells assessed as increase in intracellular ferrous ion level at 20 uM incubated for 12 hrs in presence of ferroptosis inhibitor, deferoxamine mesylate by ferroOrange probe based flow cytometric analysis", "type": "functional, cell-based"}, "[12]": {"test_system": "HCT-116", "test": "Induction of ferroptosis in human HCT-116 cells assessed as increase in ferrous ion level in lysosomes at 20 uM incubated for 12 hrs by ferroOrange probe based confocal fluorescence microscopic analysis", "type": "functional, cell-based"}, "[13]": {"test_system": "HCT-116", "test": "Induction of autophagy in human HCT-116 cells transfected with mRFP-GFP-LC3B assessed as formation of autophagosomes by measuring reduction in GFP to mRFP fluorescence ratio at 5 to 20 uM incubated for 12 hrs by Lyso tracker red staining based confocal fluorescence microscopic analysis", "type": "functional, cell-based", "conditions": "dose 5-20 µM"}, "[14]": {"test_system": "HCT-116", "test": "Induction of autophagy in human HCT-116 cells transfected with mRFP-GFP-LC3B assessed as colocalization of lysosome with LC3B protein at 20 uM incubated for 12 hrs by Lyso tracker red staining based confocal fluorescence microscopic analysis", "type": "functional, cell-based"}, "[15]": {"test_system": "HCT-116", "test": "Induction of autophagy in human HCT-116 cells assessed as increase in intracellular ferrous ion level at 20 uM incubated for 12 hrs in presence of autophagy inhibitor, Bafilomycin A1 by Lyso tracker green staining based confocal microscopic analysis", "type": "functional, cell-based"}, "[16]": {"test_system": "HCT-116", "test": "Induction of autophagy in human HCT-116 cells assessed as increase in 4-HNE level at 20 uM incubated for 12 hrs by ELISA", "type": "functional, cell-based"}, "[17]": {"test_system": "HCT-116", "test": "Induction of autophagy in human HCT-116 cells assessed as increase in 4-HNE level at 20 uM incubated for 12 hrs in presence of autophagy inhibitor, Bafilomycin A1 by ELISA", "type": "functional, cell-based"}, "[18]": {"test_system": "HCT-116", "test": "Induction of ferritin autophagy in human HCT-116 cells assessed as upregulation of FTH1 protein expression at 5 to 20 uM incubated for 12 hrs by Western blotting analysis", "type": "functional, cell-based", "conditions": "dose 5-20 µM"}, "[19]": {"test_system": "HCT-116", "test": "Induction of ferritin autophagy in human HCT-116 cells assessed as upregulation of FTH1 protein expression at 20 uM incubated for 12 hrs in presence of autophagy inhibitor, Bafilomycin A1 by Western blotting analysis", "type": "functional, cell-based"}, "[20]": {"test_system": "HCT-116", "test": "Antitumor activity against human HCT-116 cells xenografted in BALB/c mouse assessed as reduction in tumor growth at 30 mg/kg,ip administrated daily for 14 days", "type": "functional, organism-based", "conditions": "time 14.0 day"}, "[21]": {"test_system": "HCT-116", "test": "Antitumor activity against human HCT-116 cells xenografted in BALB/c mouse assessed as reduction in tumor weight at 30 mg/kg,ip administrated daily for 14 days", "type": "functional, organism-based", "conditions": "time 14.0 day"}, "[22]": {"test_system": "HCT-116", "test": "Antitumor activity against human HCT-116 cells xenografted in BALB/c mouse assessed as reduction in tumor weight at 60 mg/kg,ip administrated daily for 14 days", "type": "functional, organism-based", "conditions": "time 14.0 day"}, "[23]": {"test_system": "HCT-116", "test": "Antitumor activity against human HCT-116 cells xenografted in BALB/c mouse assessed as reduction in tumor density at 60 mg/kg,ip administrated daily for 14 days by hematoxylin and eosin staining based microscopic analysis", "type": "functional, organism-based", "conditions": "time 14.0 day"}, "[24]": {"test_system": "HCT-116", "test": "Antitumor activity against human HCT-116 cells xenografted in BALB/c mouse assessed as tumor cell rupture at 30 mg/kg,ip administrated daily for 14 days by hematoxylin and eosin staining based microscopic analysis", "type": "functional, organism-based", "conditions": "time 14.0 day"}, "[25]": {"test_system": "HCT-116", "test": "Antitumor activity against human HCT-116 cells xenografted in BALB/c mouse assessed as tumor cell rupture at 60 mg/kg,ip administrated daily for 14 days by hematoxylin and eosin staining based microscopic analysis", "type": "functional, organism-based", "conditions": "time 14.0 day"}, "[26]": {"test_system": "HCT-116", "test": "Antitumor activity against human HCT-116 cells xenografted in BALB/c mouse assessed as increase in FTH1 expression at 30 mg/kg,ip administrated daily for 14 days by immunohistochemistry", "type": "functional, organism-based", "conditions": "time 14.0 day"}, "[27]": {"test_system": "HCT-116", "test": "Antitumor activity against human HCT-116 cells xenografted in BALB/c mouse assessed as increase in FTH1 expression at 60 mg/kg,ip administrated daily for 14 days by immunohistochemistry", "type": "functional, organism-based", "conditions": "time 14.0 day"}, "[28]": {"test_system": "HCT-116", "test": "Antitumor activity against human HCT-116 cells xenografted in BALB/c mouse assessed as increase in LC3B expression at 60 mg/kg,ip administrated daily for 14 days by immunohistochemistry", "type": "functional, organism-based", "conditions": "time 14.0 day"}, "[29]": {"test_system": "HCT-116", "test": "Antitumor activity against human HCT-116 cells xenografted in BALB/c mouse assessed as increase in 4-HNE level in tumor at 30 mg/kg,ip administrated daily for 14 days by ELISA", "type": "functional, organism-based", "conditions": "time 14.0 day"}, "[30]": {"test": "Toxicity in BALB/c mouse xenografted with human HCT-116 cells assessed as histopathological changes in heart at 30 mg/kg,ip administrated daily for 14 days by hematoxylin and eosin staining based microscopic analysis", "type": "organism-based", "conditions": "in vivo, 336 h, time 14 day"}, "[31]": {"test": "Toxicity in BALB/c mouse xenografted with human HCT-116 cells assessed as histopathological changes in spleen at 30 mg/kg,ip administrated daily for 14 days by hematoxylin and eosin staining based microscopic analysis", "type": "organism-based", "conditions": "in vivo, 336 h, time 14 day"}, "[32]": {"test": "Toxicity in BALB/c mouse xenografted with human HCT-116 cells assessed as histopathological changes in spleen at 60 mg/kg,ip administrated daily for 14 days by hematoxylin and eosin staining based microscopic analysis", "type": "organism-based", "conditions": "in vivo, 336 h, time 14 day"}, "[33]": {"test": "Toxicity in BALB/c mouse xenografted with human HCT-116 cells assessed as histopathological changes in lung at 30 mg/kg,ip administrated daily for 14 days by hematoxylin and eosin staining based microscopic analysis", "type": "organism-based", "conditions": "in vivo, 336 h, time 14 day"}, "[34]": {"test": "Toxicity in BALB/c mouse xenografted with human HCT-116 cells assessed as histopathological changes in kidney at 30 mg/kg,ip administrated daily for 14 days by hematoxylin and eosin staining based microscopic analysis", "type": "organism-based", "conditions": "in vivo, 336 h, time 14 day"}}, "note": "Active and inactive are the calls of the source. No cut-off for these calls is given here.", "data": [{"smiles": "C=C(Cl)C(=O)NCCCCCCCCCCCC(=O)Oc1c(OC)ccc2c1[C@@]13CCN(C)[C@@H](C2)[C@H]1C=C(OC)C(=O)C3", "values": [{"measurement": "Activity", "setting": "[1]", "value": "Active"}, {"measurement": "IC50", "setting": "[2]", "value": 15.1, "unit": "µM"}, {"measurement": "Activity", "setting": "[3]", "value": "Active"}, {"measurement": "Activity", "setting": "[4]", "value": "inactive"}, {"measurement": "Activity", "setting": "[5]", "value": "inactive"}, {"measurement": "Activity", "setting": "[6]", "value": "inactive"}, {"measurement": "Activity", "setting": "[7]", "value": "inactive"}, {"measurement": "Activity", "setting": "[8]", "value": "inactive"}, {"measurement": "Activity", "setting": "[9]", "value": "Dose-Dependent Effect"}, {"measurement": "Activity", "setting": "[10]", "value": "Dose-Dependent Effect"}, {"measurement": "Activity", "setting": "[11]", "value": "inactive"}, {"measurement": "Activity", "setting": "[12]", "value": "Active"}, {"measurement": "Activity", "setting": "[13]", "value": "Active"}, {"measurement": "Activity", "setting": "[14]", "value": "Active"}, {"measurement": "Activity", "setting": "[15]", "value": "inactive"}, {"measurement": "Activity", "setting": "[16]", "value": "Active"}, {"measurement": "Activity", "setting": "[17]", "value": "inactive"}, {"measurement": "Activity", "setting": "[18]", "value": "Active"}, {"measurement": "Activity", "setting": "[19]", "value": "inactive"}, {"measurement": "Activity", "setting": "[20]", "value": "Active"}, {"measurement": "Activity", "setting": "[21]", "value": "Active"}, {"measurement": "Activity", "setting": "[22]", "value": "Active"}, {"measurement": "Activity", "setting": "[23]", "value": "Active"}, {"measurement": "Activity", "setting": "[24]", "value": "Active"}, {"measurement": "Activity", "setting": "[25]", "value": "Active"}, {"measurement": "Activity", "setting": "[26]", "value": "Active"}, {"measurement": "Activity", "setting": "[27]", "value": "Active"}, {"measurement": "Activity", "setting": "[28]", "value": "Active"}, {"measurement": "Activity", "setting": "[29]", "value": "Active"}, {"measurement": "Activity", "setting": "[30]", "value": "Non-Toxic"}, {"measurement": "Activity", "setting": "[31]", "value": "Non-Toxic"}, {"measurement": "Activity", "setting": "[32]", "value": "Non-Toxic"}, {"measurement": "Activity", "setting": "[33]", "value": "Non-Toxic"}, {"measurement": "Activity", "setting": "[34]", "value": "Non-Toxic"}]}]}
